Tests used:
[1] = test system: sensory panel of trained judges; experiment: Concentration response curve: sweetness intensity scored against sucrose reference standards, Beidler equation fit; assay type: in vivo, human; conditions: for Potency at 5 SEV: room temperature, P=SEV*10,000/C; for Beidler equation SEV=a*C/(b+C): constant b (concentration) / Beidler equation SEV=a*C/(b+C): constant a (maximum SEV): best fitting Beidler equation; for Beidler equation SEV=a*C/(b+C): constant b (concentration): C in ppm or mg/L; for Beidler equation SEV=a*C/(b+C): constant a (maximum SEV): SEV = % sucrose equivalent sweetness
Procedure: A blend composed of 80% purified mogroside-V (Chem Faces, CFS202202), 15% 11-oxo-mogroside-V (Chem Faces, CFS202201), and 5% mogroside IIIA-1 (Chem Faces, CFS202201) was diluted to six different concentrations (from 100 ppm to 650 ppm) in spring water (Ice Mountain, retail). For each solution, a set of five reference standards of sucrose dissolved in water in 0.5% (w/w) concentration increments was also prepared. Each concentration of the mogroside blend was evaluated by 6-8 trained judges. Samples were presented in 4-oz soufflé cups at room temperature, and the test sample was labeled with a random 3-digit code. Panelists tasted the blind-coded sample compared to the set of reference samples to determine the sweetness intensity score to the nearest 0.1 unit. Each concentration was evaluated in duplicate. The sweetness intensity scores were then plotted against the mogroside blend concentration to make a concentration response curve, and the best fitting Beidler equation was generated. […] is a 90% pure mogroside V containing about 6% 11-oxo mogroside-V. Five different concentrations of V90 (Huacheng Bio, LHGE-230401), ranging from 100 ppm to 500 ppm, were diluted in spring water (Ice Mountain, retail). Each dilution was presented to a panel of 7-8 judges experienced in evaluating sweeteners and was accompanied by a range of five sucrose solution reference standards bracketing the sweetness intensity of the test sample in 0.5% (w/w) increments. Panelists assigned a sweetness intensity score to each test sample, including blind duplicates, to the nearest 0.1 unit. All samples were served at room temperature in 4-oz soufflé cups with the test samples labeled with random 3-digit codes. Water and […] crackers were provided for rinsing between samples. Both individual mogrosides were also evaluated at five different concentrations in spring water (Ice Mountain, retail) for sweetness intensity. 11-oxo-mogroside was diluted to concentrations ranging from 200 ppm to 600 ppm and mogroside IIIA-1 was diluted to concentrations from 100 to 500 ppm. For each concentration, a set of five sucrose solution reference standards were prepared in 0.5% (w/w) increments to approximately bracket the sweetness intensity of the test sample. A panel of 6-8 trained judges evaluated each test sample in duplicate, accompanied by the corresponding reference standards, and assigned a sweetness intensity score to the sample to the nearest 0.1 unit. Samples were presented in 4-oz soufflé cups at room temperature, and the test sample was labeled with a random 3-digit code. The sweetness intensity scores were then plotted as a function of mogroside concentration to make a concentration response curve, and the best fitting Beidler equation was generated. P=SEV*10,000/C • where C is the concentration of the mogroside blend in ppm or mg/L and SEV is the % sucrose equivalent sweetness determined by sensory panel.

[2] = test system: sensory panel of trained judges; experiment: Temporal properties: onset of sweetness, time to maximum sweetness, decay after expectorating; assay type: in vivo, human; conditions: 600 ppm, about 6 SEV, in spring water
Procedure: Equi-sweet solutions at about 6 SEV were made in spring water (Ice Mountain, retail) of the following sweeteners: purified mogroside-V (Chem Faces, CFS202202), rebaudioside M (95%, Tate & Lyle, lot #1802-2302-1), rebaudioside A (95%, Tate & Lyle, 210617-01), and monk fruit (50% mogroside V, Tate & Lyle, 45GF220305). Another solution was prepared at about 6 SEV of a blend composed of 80% purified mogroside-V (Chem Faces, CFS202202), 15% 11-oxo-mogroside-V (Chem Faces, CFS202201), and 5% mogroside IIIA-1 (Chem Faces, CFS202201). The concentration of each solution can be found in Table 7.
A set of samples of each solution was evaluated by a panel of 7-9 trained judges. Panelists measured the time to onset of sweetness and time to reach maximum sweetness using a timer. Sweetness decay after expectorating was measured by rating sweetness intensity every 5 seconds on a 15-cm line scale graduated in evenly spaced 5-point increments and labeled low (0) to high (60). […] Blind duplicates were evaluated in a second panel under the same conditions.
A solution of V90 was made at 410 ppm in spring water (Ice Mountain, retail) to be about 6 SEV. […] A panel of 7-8 trained judges evaluated the temporal properties and taste attributes of each sample, including blind duplicates, in the same manner described previously in the Mogroside Blend 80/15/5 Taste Quality sections. […]

[3] = test system: sensory panel of experienced judges; experiment: Descriptive analysis of sweetener attributes on a 15-cm line scale, low (0) to high (60); assay type: in vivo, human; conditions: about 6 SEV solution, 0=low, 60=high
Excerpt: The same samples described above were presented to a panel of 6-9 experienced judges for descriptive analysis. Solutions were blind-coded with random 3-digit codes and served at room temperature for evaluation. Panelists individually scored attributes of each sample, such as sweetness intensity, bitterness, astringency, and the presence of side flavors such as licorice or fruitiness. Scores were based on a 15-cm line scale marked with evenly spaced 5-point increments from low (0) to high (60). Samples were evaluated in duplicate. Water and […] crackers were provided for rinsing between samples. A solution of […] was made at 410 ppm in spring water (Ice Mountain, retail) to be about 6 SEV. A second solution was made at about 6 SEV of purified mogroside-V (Chem Faces, CFS202202) at 325 ppm. A panel of 7-8 trained judges evaluated the temporal properties and taste attributes of each sample, including blind duplicates, in the same manner described previously in the Mogroside Blend 80/15/5 Taste Quality sections. The panel also evaluated the intensity of several sensory attributes such as bitterness, astringency, caramel flavor, and fruitiness. The same 15-cm line scale was used for scoring, labeled from low (0) to high (60) with evenly spaced 5-point increments. The samples were served in 4-oz soufflé cups that were labeled with random 3-digit codes. Samples were evaluated at room temperature and included blind duplicates. Water and […] crackers were provided for rinsing between samples. A 400-ppm solution of V90 (Huacheng Bio, LHGE-230401) was tasted as a reference at the beginning of the descriptive analysis session for calibration verification among panelists.

[4] = test system: sensory panel of trained judges; conditions: 6 SEV solution of sucrose; cited from earlier work
[5] = in spring water, from Beidler curve

**Q.** With `C[C@H](CC[C@@H](O[C@@H]1O[C@H](CO[C@@H]2O[C@H](CO)[C@@H](O)[C@H](O)[C@H]2O)[C@@H](O)[C@H](O)[C@H]1O[C@@H]1O[C@H](CO)[C@@H](O)[C@H](O)[C@H]1O)C(C)(C)O)[C@H]1CC[C@@]2(C)[C@@H]3CC=C4[C@@H](CC[C@H](O[C@@H]5O[C@H](CO[C@@H]6O[C@H](CO)[C@@H](O)[C@H](O)[C@H]6O)[C@@H](O)[C@H](O)[C@H]5O)C4(C)C)[C@]3(C)C(=O)C[C@]12C` [11-oxo-mogroside V] as the compound, how does the “Potency at 5 SEV” value [1, 5] read?
**A.** 28x

**Q.** What about the “times as sweet as sucrose at 5 SEV” value ([1]; in spring water, running text, listed as 11-oxo mogroside-V) of the same compound?
**A.** approximately 28 times as sweet as sucrose

**Q.** And the “times as sweet as sucrose at 5 SEV” value ([1]; in spring water, running text, listed as 11-oxo-mogroside-V)?
**A.** 28 times as sweet as sucrose

**Q.** And the “Beidler equation SEV=a*C/(b+C): constant b (concentration)” value [1]?
**A.** 546.3 ppm

**Q.** What about the “Beidler equation SEV=a*C/(b+C): constant a (maximum SEV)” value [1] of the same compound?
**A.** 6.56 SEV

**Q.** Which results are given for `C[C@H](CC[C@@H](O[C@@H]1O[C@H](CO[C@@H]2O[C@H](CO)[C@@H](O)[C@H](O)[C@H]2O)[C@@H](O)[C@H](O)[C@H]1O[C@@H]1O[C@H](CO)[C@@H](O)[C@H](O)[C@H]1O)C(C)(C)O)[C@H]1CC[C@@]2(C)[C@@H]3CC=C4[C@@H](CC[C@H](O)C4(C)C)[C@]3(C)[C@H](O)C[C@]12C` [Mogroside IIIA-1, mogroside III-A1]?
**A.** bitter taste still present after expectorating [2]: more than 60 seconds; Potency at 5 SEV [1, 5]: 71x; Beidler equation SEV=a*C/(b+C): constant b (concentration) [1]: 139.9 ppm; Beidler equation SEV=a*C/(b+C): constant a (maximum SEV) [1]: 6.00 SEV

**Q.** With `C[C@H](CC[C@@H](O[C@@H]1O[C@H](CO[C@@H]2O[C@H](CO)[C@@H](O)[C@H](O)[C@H]2O)[C@@H](O)[C@H](O)[C@H]1O[C@@H]1O[C@H](CO)[C@@H](O)[C@H](O)[C@H]1O)C(C)(C)O)[C@H]1CC[C@@]2(C)[C@@H]3CC=C4[C@@H](CC[C@H](O[C@@H]5O[C@H](CO[C@@H]6O[C@H](CO)[C@@H](O)[C@H](O)[C@H]6O)[C@@H](O)[C@H](O)[C@H]5O)C4(C)C)[C@]3(C)[C@H](O)C[C@]12C` [Mogroside V, mogroside V] as the compound, how does the “Potency at 5 SEV” value [1, 5] read?
**A.** 185x

**Q.** What about the “times as sweet as sucrose at 5 SEV” value ([1]; in spring water, listed as purified Mog-V) of the same compound?
**A.** ~200 times as sweet as sucrose

**Q.** And the “times as sweet as sucrose at 5 SEV” value ([1]; in spring water, running text, listed as mogroside V)?
**A.** 185 times as sweet as sucrose

**Q.** What about the “times as sweet as sucrose at 5 SEV” value ([1]; in spring water, running text, listed as mogroside-V) of the same compound?
**A.** about 185 times as sweet as sucrose

**Q.** What about the “Potency at 10 SEV” value ([1]; 10 SEV, in spring water, from Beidler curve, beyond tested concentrations) of the same compound?
**A.** 131x

**Q.** And the “Beidler equation SEV=a*C/(b+C): constant b (concentration)” value [1]?
**A.** 920.8 ppm

**Q.** And the “Beidler equation SEV=a*C/(b+C): constant a (maximum SEV)” value [1]?
**A.** 22.03 SEV

**Q.** And the “Astringent, average intensity score” value ([3]; listed as Mog·V)?
**A.** 2.5¤

**Q.** And the “Bitterness, average intensity score” value ([3]; listed as Mog·V)?
**A.** 1.4¤

**Q.** What about the “Body, average intensity score” value ([3]; listed as Mog·V) of the same compound?
**A.** 12.1¤

**Q.** What about the “Caramel, average intensity score” value ([3]; listed as Mog·V) of the same compound?
**A.** 4.5¤

**Q.** What about the “Fruity, average intensity score” value ([3]; listed as Mog·V) of the same compound?
**A.** 3.0¤

**Q.** And the “Licorice, average intensity score” value ([3]; listed as Mog·V)?
**A.** 0.7¤

**Q.** And the “Sweet Linger, average intensity score” value ([3]; listed as Mog·V)?
**A.** 14.3¤

**Q.** And the “Sweetness, average intensity score” value ([3]; listed as Mog·V)?
**A.** 36.3¤

**Q.** For `C=C1C[C@@]23CC[C@H]4[C@@](C)(CCC[C@@]4(C)C(=O)O[C@@H]4O[C@H](CO)[C@@H](O)[C@H](O)[C@H]4O)[C@@H]2CC[C@]1(O[C@@H]1O[C@H](CO)[C@@H](O)[C@H](O[C@@H]2O[C@H](CO)[C@@H](O)[C@H](O)[C@H]2O)[C@H]1O[C@@H]1O[C@H](CO)[C@@H](O)[C@H](O)[C@H]1O)C3` [Rebaudioside A, rebaudioside A], which “Astringent, average intensity score” value [3] is on record?
**A.** 3.7¤

**Q.** And the “Bitterness, average intensity score” value [3]?
**A.** 11.2¤

**Q.** And the “Body, average intensity score” value [3]?
**A.** 9.1¤

**Q.** And the “Caramel, average intensity score” value [3]?
**A.** 1.9¤

**Q.** What about the “Fruity, average intensity score” value [3] of the same compound?
**A.** 1.3¤

**Q.** And the “Licorice, average intensity score” value [3]?
**A.** 2.7¤

**Q.** What about the “Sweet Linger, average intensity score” value [3] of the same compound?
**A.** 9.6¤

**Q.** And the “Sweetness, average intensity score” value [3]?
**A.** 35.1¤

**Q.** Which “Astringent, average intensity score” value [3] does the source give for `C=C1C[C@@]23CC[C@H]4[C@@](C)(CCC[C@@]4(C)C(=O)O[C@@H]4O[C@H](CO)[C@@H](O)[C@H](O[C@@H]5O[C@H](CO)[C@@H](O)[C@H](O)[C@H]5O)[C@H]4O[C@@H]4O[C@H](CO)[C@@H](O)[C@H](O)[C@H]4O)[C@@H]2CC[C@]1(O[C@@H]1O[C@H](CO)[C@@H](O)[C@H](O[C@@H]2O[C@H](CO)[C@@H](O)[C@H](O)[C@H]2O)[C@H]1O[C@@H]1O[C@H](CO)[C@@H](O)[C@H](O)[C@H]1O)C3` [Rebaudioside M, rebaudioside M] here?
**A.** 2.0¤

**Q.** And the “Bitterness, average intensity score” value [3]?
**A.** 1.7¤

**Q.** And the “Body, average intensity score” value [3]?
**A.** 11.2¤

**Q.** What about the “Caramel, average intensity score” value [3] of the same compound?
**A.** 3.5¤

**Q.** What about the “Fruity, average intensity score” value [3] of the same compound?
**A.** 1.6¤

**Q.** What about the “Licorice, average intensity score” value [3] of the same compound?
**A.** 1.0¤

**Q.** And the “Sweet Linger, average intensity score” value [3]?
**A.** 17.3¤

**Q.** What about the “Sweetness, average intensity score” value [3] of the same compound?
**A.** 36.4¤

**Q.** For `OC[C@H]1O[C@@](CO)(O[C@H]2O[C@H](CO)[C@@H](O)[C@H](O)[C@H]2O)[C@@H](O)[C@@H]1O` [sucrose], which “sweet linger decay time (typical value)” value [4] is on record?
**A.** 20 to 25 s

Reference: US20240229055A9, “MOGROSIDE COMPOSITIONS AND METHODS OF PRODUCING SAME” (Elo Life Systems, priority 2022, published 2024)
